Experimental findings from patent publication US7892764B2, “System for seizure suppression” (priority 2006, dated 2011) are described below.

Assay [1] relates to cultured mouse hippocampal neurons. The experiment in a line: Cell culture model of epilepsy: kynurenic acid (Kyn) withdrawal-induced seizure-like activity, current-clamp recording. The assay is classed as cell-based. The source says: We hypothesized that ASICs are involved in seizure propagation. Using the Furshpan and Potter cell culture model of epilepsy (Meller et al., 2003; Furshpan et al., 1998), we tested ASIC blockade in mouse hippocampal neurons cultured with the glutamate antagonist kynurenate (Kyn) and elevated Mg^2+. In the presence of Kyn, the majority of hippocampal neurons remained quiescent. […] Without amiloride, Kyn withdrawal-induced sustained depolarization of 39.5±2.1 mV and paroxysmal bursts at 4.0±0.5 Hz. With 30 μM amiloride, membrane depolarization was reduced to 28.6±2.7 mV (p<0.05, n=5) and burst activity reduced to 2.5±0.4 Hz (p<0.01, FIGS. 3C and 3D). Similarly, application of PcTX1 reduced membrane depolarization from 30.2±3.7 mV to 10.7±1.8 mV (n=8, p<0.01) and burst activity from 5.5±0.6 Hz to 1.2±0.3 Hz (n=9, p<0.01, FIGS. 3C, 3D, and 4).
Cell culture model of epilepsy. Long term cell culture model of epilepsy was performed as described (Furshpan et al., 1989; Meller et al., 2003). Briefly, hippocampal neurons prepared from 1-2 day-old C57BL/6 mice cultured in Neurobasal-A/B27 media supplemented with 10 mM Kyn and 5 mM MgCl2. Culture media was replenished with fresh kynurenic acid/Mg^2+ every 3 days. Cells were used for patch-clamp recording after 3 to 4 weeks. Following the formation of a tight seal in a whole-cell configuration, neurons were current-clamped at ˜−60 mV. In the presence of Kyn, the majority of hippocampal neurons remained quiescent. […] The spontaneous electrical behavior of the culture has many of the characteristics of seizure activity in an intact cortex. This system allows seizure-related cellular mechanisms to be studied in long-term cell culture.
Patch clamp techniques. Whole-cell voltage-clamp and current-clamp recordings were performed as described in our previous studies (Xiong et al., 2004). Patch electrodes were constructed from thin-welled borosilicate glass (1.5 mm diameter, WPI, Sarasota, Fla., USA) on a two-stage puller (PP83 Narishige, Tokyo). The resistances of patch electrodes were 1.5-3 MΩ when filled with the intracellular solution (see below). Whole-cell currents were recorded using Axopatch 200B amplifiers with pCLAMP software (Axon Instruments, CA, USA). Data were filtered at 2 kHz and digitized at 5 kHz using Digidata 1322 (Axon Instruments). During each experiment, a voltage step of −10 mV was applied periodically to monitor the cell capacitance and the access resistance. A multi-barrel perfusion system (SF-77, Warner Instrument Co., Conn., USA) was employed to achieve a rapid exchange of solutions. All experiments were performed at room temperature (22-24° C.).

Another assay concerns mouse hippocampal slices. Nature of the assay: Stimulus train-induced after-discharges in hippocampal slices. The assay is classed as cell-based. On the procedure: ASIC blockade on seizure-like bursting activity induced by high frequency stimulus trains, e.g., after-discharges (Stasheff et al., 1985), was determined as high frequency electric stimulation generates epileptic bursting without disrupting the balance of excitation versus inhibition thus more closely mimicking epileptogenesis in vivo (Stasheff et al., 1985). Following approximately five trains of stimulation, relatively stable after-discharges were recorded (FIGS. 7A-7E). Amiloride bath perfusion reduced after-discharge duration by about 80% (from 21.0±3.5 sec to 4.7±2.4 sec, n=3; p<0.05) and burst firing frequency by about 90% (from 2.8±0.4 Hz to 0.3±0.1 Hz, n=3, p<0.05, FIG. 7A). Similarly, PcTX1 reduced after-discharge duration from 29.3±8.5 to 11.5±4.1 sec (reduced to 0.44±0.10 of control, n=4, p<0.05) and burst firing frequency from 0.9±0.1 to 0.5±0.2 Hz (reduced to 0.5±0.1 of control, n=4, p<0.05, FIG. 7B). Similar to ASIC1a blockade, seizure activity was attenuated in hippocampal slices from ASIC1^−/− mice (Xiong et al., 2004) (FIGS. 7C-7E). In wild-type (WT) mice, five sets of stimulus trains generated bursting activity with a duration of 13.9±2.0 sec and a firing frequency of 1.6±0.2 Hz, whereas in slices from ASIC1^−/− mice, identical stimulations generated after-discharges of only 5.8±3.3 sec duration and 0.4±0.2 Hz frequency (n=9 for both groups, p<0.05 for difference in duration and p<0.01 for frequency, FIG. 7E).
Preparation of hippocampal slices and brain slice recording. Hippocampal slices were obtained from 8- to 10-week-old mice. The protocol for brain-slice recording was approved by the Institutional Animal Care and Use Committee of Legacy Research. Animals were deeply anesthetized with isoflurane and decapitated. Brains were quickly removed and placed in ice-cold solution that contained: 125 mM sucrose, 2.5 mM KCl, 26 mM NaHCO3, 1.25 mM NaHPO4, 6.0 mM […], 0.5 mM CaCl2, and 10 mM glucose, and was saturated with 95% O2 and 5% CO2 (pH 7.4). Hippocamnpal slices were cut in 400 μm thickness in transverse plane with a vibratome (Leica VT 1000S) and placed in a slice holding chamber (BSC-PC Prechamber, Warner Instrument) and incubated in normal artificial cerebral spinal fluid (aCSF) that contained: 125 mM NaCl, 2.5 mM KCl, 26 mM NaHCO3, 1.25 mM […], 1.0 mM MgSO4, 2.0 mM CaCl2, and 10 mM glucose, and was saturated with 95% O2 and 5% CO2 (pH 7.4).
Following ˜60 min of incubation at room temperature, individual slices were transferred to a submerged slice chamber with a volume of 0.5 mL (Warner Instruments, Hamden, Conn.) and perfused with oxygenated aCSF (35° C.) at a rate of 3-4 mL/min. Recording electrodes were pulled from borosilicate glass and filled with aCSF. The population spike and the field excitatory postsynaptic potentials (fEPSP) were recorded in stratum pyramidale and striatum radiatum of hippocampal CA1 region, by stimulating Schaffer Collaterals.
For low Mg^2+ induced epileptic burst activity, Mg^2+-free aCSF was perfused to the slices for ˜30 min. For stimulus-train induced bursting discharges (STIB), each stimulation train consisted of 120 pulses at 60 Hz and each pulse was 100 μsec in duration (Stasheff et al., 1985). A 10-minute interval of non-stimulation was provided between successive trains of high frequency stimulation. Stimulation electrodes were located in striatum radiatum between CA1 and CA3 region. The population spikes were recorded from striatum pyramidale of the CA3 region.

The mark [2] stands for this setting: 30 μM amiloride, perfused 2 min before and during Kyn withdrawal.
[3] abbreviates: 100 μM amiloride bath perfusion.
Setting [4] is: PcTX1 (venom 200 ng/mL total protein per FIG. 4 legend).

On to `NC(N)=NC(=O)c1nc(Cl)c(N)nc1N` [amiloride, 3,5-diamino-6-chloro-N(diaminomethylidene)pyrazine-2-carboxamide], for which, in assay [1] (setting [2]), the “Kyn withdrawal-induced paroxysmal burst activity (frequency)” value is recorded as 2.5±0.4 Hz and the “Kyn withdrawal-induced sustained membrane depolarization” value is listed as 28.6±2.7 mV. Moreover, in the assay with mouse hippocampal slices (setting [3]), the after-discharge duration was determined as 4.7 ± 2.4 s, the burst firing frequency was 0.3±0.1 Hz, the “reduction of after-discharge duration” value is “about 80%” and the “reduction of burst firing frequency” value was “about 90%”.
For the compound Psalmotoxin 1 [PcTX1], in assay [1] (setting [4]), the “Kyn withdrawal-induced burst activity (frequency)” value was 1.2±0.3 Hz and the “Kyn withdrawal-induced membrane depolarization” value is on record as 10.7±1.8 mV. In the assay with mouse hippocampal slices (200 ng/mL PcTX1), the after-discharge duration turned out to be 11.5 ± 4.1 s, the “after-discharge duration relative to control” value is reported as 0.44±0.10 of control, the burst firing frequency turned out to be 0.5±0.2 Hz and the “burst firing frequency relative to control” value is reported as 0.5±0.1 of control.
